Assay [1] concerns the target T1, Tyrosine-protein kinase receptor TYRO3 (Homo sapiens, UniProt Q06418).
T1 sequence (Q06418 whole entry): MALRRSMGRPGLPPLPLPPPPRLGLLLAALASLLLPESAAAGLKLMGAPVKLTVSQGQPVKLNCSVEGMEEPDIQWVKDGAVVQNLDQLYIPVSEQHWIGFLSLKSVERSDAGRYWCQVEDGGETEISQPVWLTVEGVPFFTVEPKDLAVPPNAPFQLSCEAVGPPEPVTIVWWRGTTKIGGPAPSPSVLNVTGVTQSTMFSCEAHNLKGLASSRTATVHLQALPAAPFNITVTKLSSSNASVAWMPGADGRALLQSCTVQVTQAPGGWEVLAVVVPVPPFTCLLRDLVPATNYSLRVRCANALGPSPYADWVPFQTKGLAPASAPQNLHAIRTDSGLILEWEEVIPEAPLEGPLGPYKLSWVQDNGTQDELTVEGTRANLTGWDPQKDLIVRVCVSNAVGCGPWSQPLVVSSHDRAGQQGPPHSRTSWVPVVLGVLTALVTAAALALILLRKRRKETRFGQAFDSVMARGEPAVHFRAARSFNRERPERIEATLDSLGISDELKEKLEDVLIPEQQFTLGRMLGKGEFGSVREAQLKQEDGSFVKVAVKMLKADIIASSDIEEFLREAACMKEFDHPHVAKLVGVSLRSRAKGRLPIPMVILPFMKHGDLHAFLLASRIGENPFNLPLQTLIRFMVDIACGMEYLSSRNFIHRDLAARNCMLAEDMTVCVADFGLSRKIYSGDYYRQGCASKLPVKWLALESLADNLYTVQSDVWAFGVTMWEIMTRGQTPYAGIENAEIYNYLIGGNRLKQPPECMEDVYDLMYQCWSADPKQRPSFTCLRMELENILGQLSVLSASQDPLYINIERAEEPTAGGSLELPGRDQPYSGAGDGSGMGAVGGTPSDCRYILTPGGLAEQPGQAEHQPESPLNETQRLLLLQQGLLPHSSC
In words: Inhibition of recombinant GST-tagged human Tyro3 (451 to 890 residues) cytoplasmic domain expressed in Baculovirus expression system using poly (Glu-Ala-Tyr) peptide as substrate after 5 mins in presence of ADP by fluorescence analysis.

For assay [2], the target named is Tyrosine-protein kinase receptor UFO (Homo sapiens) (UniProt P30530). In words: Inhibition of recombinant His-tagged human Axl (473 to end residues) cytoplasmic domain expressed in insect system using poly (Glu-Ala-Tyr) peptide as substrate after 1.5 hrs by ELISA.
Chain of Tyrosine-protein kinase receptor UFO (Homo sapiens) (P30530 whole entry, the tested form may be a part): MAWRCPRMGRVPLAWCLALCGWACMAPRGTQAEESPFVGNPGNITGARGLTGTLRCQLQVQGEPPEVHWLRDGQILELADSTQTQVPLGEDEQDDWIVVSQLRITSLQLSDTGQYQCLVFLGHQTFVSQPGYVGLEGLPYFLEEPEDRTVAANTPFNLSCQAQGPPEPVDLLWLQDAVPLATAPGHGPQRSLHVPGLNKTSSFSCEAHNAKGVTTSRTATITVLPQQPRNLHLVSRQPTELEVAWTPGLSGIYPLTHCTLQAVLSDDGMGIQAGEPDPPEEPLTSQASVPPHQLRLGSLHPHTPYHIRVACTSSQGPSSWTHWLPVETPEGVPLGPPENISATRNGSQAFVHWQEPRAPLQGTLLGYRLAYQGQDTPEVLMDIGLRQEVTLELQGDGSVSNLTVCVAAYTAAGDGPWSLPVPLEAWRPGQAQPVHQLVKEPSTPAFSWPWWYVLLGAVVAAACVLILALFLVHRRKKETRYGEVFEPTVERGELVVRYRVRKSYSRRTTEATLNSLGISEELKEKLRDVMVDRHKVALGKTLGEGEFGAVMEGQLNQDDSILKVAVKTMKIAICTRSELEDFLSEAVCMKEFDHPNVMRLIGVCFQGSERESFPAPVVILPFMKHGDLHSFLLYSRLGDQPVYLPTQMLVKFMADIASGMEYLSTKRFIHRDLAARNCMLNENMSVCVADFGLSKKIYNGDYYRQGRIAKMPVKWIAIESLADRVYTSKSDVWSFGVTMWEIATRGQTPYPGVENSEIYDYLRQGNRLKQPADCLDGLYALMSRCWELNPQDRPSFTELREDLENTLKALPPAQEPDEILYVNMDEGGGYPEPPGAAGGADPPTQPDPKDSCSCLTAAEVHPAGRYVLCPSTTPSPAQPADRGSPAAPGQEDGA
The target of assay [3] is Tyrosine-protein kinase ABL1 (Homo sapiens) (UniProt P00519). In words: Binding affinity to human wild type ABL1 (229 to 512 residues) expressed in mammalian expression system assessed as fraction of unbound kinase to substrate at 1 uM after 1 hr by KinomeScan assay.
Chain of Tyrosine-protein kinase ABL1 (Homo sapiens) (P00519 whole entry, the tested form may be a part): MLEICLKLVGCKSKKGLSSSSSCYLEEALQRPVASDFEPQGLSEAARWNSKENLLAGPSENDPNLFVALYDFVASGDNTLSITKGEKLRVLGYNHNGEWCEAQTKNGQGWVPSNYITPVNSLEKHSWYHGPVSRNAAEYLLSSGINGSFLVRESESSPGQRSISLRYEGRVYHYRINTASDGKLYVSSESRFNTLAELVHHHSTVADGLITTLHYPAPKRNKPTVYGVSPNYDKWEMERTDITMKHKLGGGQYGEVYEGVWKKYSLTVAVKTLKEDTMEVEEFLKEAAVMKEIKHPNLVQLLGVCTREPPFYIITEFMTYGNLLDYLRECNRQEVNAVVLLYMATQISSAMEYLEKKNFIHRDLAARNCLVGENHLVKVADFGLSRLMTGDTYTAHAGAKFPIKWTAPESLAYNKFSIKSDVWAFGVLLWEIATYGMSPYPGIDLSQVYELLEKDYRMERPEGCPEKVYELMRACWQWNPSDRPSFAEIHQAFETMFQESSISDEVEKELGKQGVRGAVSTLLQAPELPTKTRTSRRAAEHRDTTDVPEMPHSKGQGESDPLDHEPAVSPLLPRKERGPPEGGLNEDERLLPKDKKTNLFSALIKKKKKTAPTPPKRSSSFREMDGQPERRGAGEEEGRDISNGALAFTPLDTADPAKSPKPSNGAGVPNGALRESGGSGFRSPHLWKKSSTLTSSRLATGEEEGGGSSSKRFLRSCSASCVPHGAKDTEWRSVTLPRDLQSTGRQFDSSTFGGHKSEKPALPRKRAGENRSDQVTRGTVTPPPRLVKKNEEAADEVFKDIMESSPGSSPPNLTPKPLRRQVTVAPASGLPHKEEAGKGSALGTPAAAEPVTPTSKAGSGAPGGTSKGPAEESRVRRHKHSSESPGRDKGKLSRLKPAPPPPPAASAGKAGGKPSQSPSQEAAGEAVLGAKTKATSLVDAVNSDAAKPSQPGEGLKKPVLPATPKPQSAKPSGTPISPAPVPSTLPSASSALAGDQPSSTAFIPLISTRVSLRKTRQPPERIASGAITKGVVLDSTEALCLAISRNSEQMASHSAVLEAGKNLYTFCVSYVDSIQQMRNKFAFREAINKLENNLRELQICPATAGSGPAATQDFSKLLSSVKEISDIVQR
Assay [4] addresses Serine/threonine-protein kinase B-raf (Homo sapiens) (UniProt P15056). In words: Binding affinity to wild-type human partial length BRAF (S429 to E741 residues) expressed in mammalian expression system assessed as fraction of unbound kinase to substrate at 0.1 uM after 1 hr by KinomeScan assay.
Assay [5] shares this target. In words: Binding affinity to wild-type human partial length BRAF (S429 to E741 residues) expressed in mammalian expression system assessed as fraction of unbound kinase to substrate at 10 uM after 1 hr by KinomeScan assay.
Assay [6] deals with Fibroblast growth factor receptor 1 (Homo sapiens) (UniProt P11362). In words: Binding affinity to wild-type human partial length FGFR1 (P357 to V669 residues) expressed in bacterial expression system assessed as fraction of unbound kinase to substrate at 0.1 uM after 1 hr by KinomeScan assay.
Chain of Fibroblast growth factor receptor 1 (Homo sapiens) (P11362 22-822 limits assumed): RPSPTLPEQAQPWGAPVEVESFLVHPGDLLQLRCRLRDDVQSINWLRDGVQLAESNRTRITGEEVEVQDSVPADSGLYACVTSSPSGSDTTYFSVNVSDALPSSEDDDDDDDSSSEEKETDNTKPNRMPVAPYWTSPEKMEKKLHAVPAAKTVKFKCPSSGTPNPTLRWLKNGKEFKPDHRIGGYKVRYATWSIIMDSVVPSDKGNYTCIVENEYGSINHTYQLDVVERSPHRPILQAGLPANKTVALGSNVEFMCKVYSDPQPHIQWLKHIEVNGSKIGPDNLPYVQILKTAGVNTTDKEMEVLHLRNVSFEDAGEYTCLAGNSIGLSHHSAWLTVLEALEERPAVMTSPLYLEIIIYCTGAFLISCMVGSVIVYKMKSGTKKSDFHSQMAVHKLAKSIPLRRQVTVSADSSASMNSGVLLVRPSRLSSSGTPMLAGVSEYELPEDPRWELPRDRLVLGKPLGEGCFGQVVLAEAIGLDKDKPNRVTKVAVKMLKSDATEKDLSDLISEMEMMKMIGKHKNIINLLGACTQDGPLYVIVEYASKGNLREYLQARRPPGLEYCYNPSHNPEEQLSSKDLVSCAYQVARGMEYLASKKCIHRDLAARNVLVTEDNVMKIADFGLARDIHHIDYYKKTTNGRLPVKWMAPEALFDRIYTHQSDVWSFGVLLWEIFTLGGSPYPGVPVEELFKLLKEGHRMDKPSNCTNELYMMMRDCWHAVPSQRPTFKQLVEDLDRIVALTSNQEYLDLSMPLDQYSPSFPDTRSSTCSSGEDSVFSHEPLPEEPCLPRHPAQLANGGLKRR
Assay [7] has the same target. In words: Binding affinity to wild-type human partial length FGFR1 (P357 to V669 residues) expressed in bacterial expression system assessed as fraction of unbound kinase to substrate at 10 uM after 1 hr by KinomeScan assay.
In assay [8] the target is Glycogen synthase kinase-3 beta (Homo sapiens) (UniProt P49841). In words: Binding affinity to full length wild type human GSK3beta (M1 to T433 residues) expressed in mammalian expression system assessed as fraction of unbound kinase to substrate at 10 uM after 1 hr by KinomeScan assay.
Chain of Glycogen synthase kinase-3 beta (Homo sapiens) (P49841 whole entry, looked up, the tested form may be a part): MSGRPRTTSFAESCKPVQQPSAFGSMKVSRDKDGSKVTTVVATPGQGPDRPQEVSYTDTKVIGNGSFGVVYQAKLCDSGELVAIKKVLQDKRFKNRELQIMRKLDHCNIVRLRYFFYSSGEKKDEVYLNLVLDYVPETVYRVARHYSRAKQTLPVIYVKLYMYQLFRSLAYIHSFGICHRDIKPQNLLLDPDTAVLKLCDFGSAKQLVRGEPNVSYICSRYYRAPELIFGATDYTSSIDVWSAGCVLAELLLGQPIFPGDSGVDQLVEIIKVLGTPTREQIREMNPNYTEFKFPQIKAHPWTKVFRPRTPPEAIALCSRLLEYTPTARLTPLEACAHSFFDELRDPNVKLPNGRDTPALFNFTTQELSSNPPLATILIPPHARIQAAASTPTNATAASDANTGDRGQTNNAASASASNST
In assay [9] the target is T2, Tyrosine-protein kinase receptor TYRO3 (Homo sapiens) (UniProt Q06418).
T2 sequence (whole entry): T1 sequence (Q06418 whole entry)
In words: Binding affinity to wild-type human partial length TYRO3 (S497 to T814 residues) expressed in bacterial expression system assessed as fraction of unbound kinase to substrate at 0.1 uM after 1 hr by KinomeScan assay.

Assay [10] concerns the target Tyrosine-protein kinase receptor UFO (Homo sapiens) (UniProt P30530). In words: Binding affinity to human AXL (R497 to Y821 residues) expressed in bacterial expression system assessed as fraction of unbound kinase to substrate at 0.1 uM after 1 hr by KinomeScan assay.
The target in assay [11] is T3, Tyrosine-protein kinase Mer (Homo sapiens) (UniProt Q12866).
T3 sequence (whole entry): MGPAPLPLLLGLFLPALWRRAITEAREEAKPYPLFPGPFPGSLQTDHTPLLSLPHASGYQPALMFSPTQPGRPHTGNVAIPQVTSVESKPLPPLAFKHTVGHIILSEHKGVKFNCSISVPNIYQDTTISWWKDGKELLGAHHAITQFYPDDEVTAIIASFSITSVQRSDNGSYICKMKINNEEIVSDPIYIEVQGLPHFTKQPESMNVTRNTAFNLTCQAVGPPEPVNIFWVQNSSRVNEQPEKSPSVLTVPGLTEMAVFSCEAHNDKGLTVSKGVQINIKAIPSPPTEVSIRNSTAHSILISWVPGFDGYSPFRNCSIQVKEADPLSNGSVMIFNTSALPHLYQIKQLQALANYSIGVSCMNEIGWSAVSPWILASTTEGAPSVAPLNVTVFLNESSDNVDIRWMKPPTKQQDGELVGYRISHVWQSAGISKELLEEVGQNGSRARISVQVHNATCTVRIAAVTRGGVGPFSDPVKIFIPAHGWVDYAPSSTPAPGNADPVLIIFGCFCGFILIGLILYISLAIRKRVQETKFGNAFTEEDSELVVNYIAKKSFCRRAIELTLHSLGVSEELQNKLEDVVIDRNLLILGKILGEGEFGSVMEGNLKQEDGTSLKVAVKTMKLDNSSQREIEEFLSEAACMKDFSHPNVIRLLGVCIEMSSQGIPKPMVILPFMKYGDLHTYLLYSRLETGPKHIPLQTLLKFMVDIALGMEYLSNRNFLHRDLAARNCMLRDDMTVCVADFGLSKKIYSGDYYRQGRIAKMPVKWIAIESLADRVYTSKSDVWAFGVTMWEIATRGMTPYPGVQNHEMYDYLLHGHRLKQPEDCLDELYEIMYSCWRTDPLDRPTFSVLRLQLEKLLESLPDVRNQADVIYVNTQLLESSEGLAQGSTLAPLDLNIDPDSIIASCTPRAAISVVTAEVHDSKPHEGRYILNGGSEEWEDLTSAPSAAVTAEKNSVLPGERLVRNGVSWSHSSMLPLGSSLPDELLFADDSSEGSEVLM
In words: Binding affinity to wild-type partial length human MER (R557 to L884 residues) expressed in bacterial expression system assessed as fraction of unbound kinase to substrate at 1 uM after 1 hr by KinomeScan assay.

Activity calls are given as the source filed them. No cut-off for these calls is given here.

Chain of Serine/threonine-protein kinase B-raf (Homo sapiens) (P15056 whole entry, the tested form may be a part): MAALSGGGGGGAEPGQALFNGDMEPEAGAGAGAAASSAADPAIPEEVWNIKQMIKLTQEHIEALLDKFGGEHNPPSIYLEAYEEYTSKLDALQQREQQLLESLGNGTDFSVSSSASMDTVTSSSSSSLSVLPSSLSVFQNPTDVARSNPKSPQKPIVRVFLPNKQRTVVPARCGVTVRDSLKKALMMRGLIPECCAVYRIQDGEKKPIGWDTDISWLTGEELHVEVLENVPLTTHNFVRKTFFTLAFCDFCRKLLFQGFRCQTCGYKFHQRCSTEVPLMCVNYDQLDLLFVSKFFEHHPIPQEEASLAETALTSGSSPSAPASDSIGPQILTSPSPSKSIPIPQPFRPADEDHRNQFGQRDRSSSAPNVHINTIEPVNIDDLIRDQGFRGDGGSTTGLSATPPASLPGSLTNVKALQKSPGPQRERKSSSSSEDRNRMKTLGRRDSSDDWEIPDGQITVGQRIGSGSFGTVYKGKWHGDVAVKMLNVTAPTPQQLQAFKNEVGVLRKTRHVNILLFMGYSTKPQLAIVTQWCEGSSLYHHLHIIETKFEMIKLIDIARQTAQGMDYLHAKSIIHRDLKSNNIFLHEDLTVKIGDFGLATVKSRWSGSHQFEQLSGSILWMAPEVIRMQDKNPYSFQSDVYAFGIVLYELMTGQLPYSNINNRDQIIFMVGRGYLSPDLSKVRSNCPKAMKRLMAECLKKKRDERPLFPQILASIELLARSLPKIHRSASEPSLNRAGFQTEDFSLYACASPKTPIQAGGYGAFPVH

As to `O=C(Nc1ccc(Oc2c(Br)cnc3[nH]cnc23)c(F)c1)c1cccn(-c2ccc(F)cc2)c1=O`, in assay [1], the IC50 amounted to 270 nM. Further, the inhibition entry in assay [2] is “inactive”. Also, the Activity turned out to be 0% in assay [3]; 0% in assay [4]; 10% in [5]; 7% in [6]; 11% in assay [7]; 0% in assay [8]. For the same compound, the Activity in assay [9] is 15%; in assay [10] it was 4%; in assay [11], 60%.
On to `Cc1cnc2[nH]cnc2c1Oc1ccc(NC(=O)c2cccn(-c3ccc(F)cc3)c2=O)cc1F`, for which the 50% inhibitory concentration (IC50) in assay [1] was above 100000 nM. In assay [2], the inhibition entry was “inactive”. For the same compound, the Activity in [3] was determined as 1%; in [4] it was 0%; in assay [5], 18%; in assay [6], 8%; in assay [7], 15%; in assay [8], 0%. The values for the Activity in [9], in [10] and in assay [11] were 0%, 22% and 78%, respectively.
As to `O=C(Nc1ccc(Oc2ccnc3[nH]cnc23)c(F)c1)c1cccn(-c2ccc(F)cc2)c1=O`, in assay [1], the half-maximal inhibitory concentration (IC50) came to 690 nM. Besides, in assay [2], the inhibition entry was “Active”. Besides, the Activity was found to be 13% in assay [3]; 9% in [4]; 58% in assay [5]; 1% in assay [6]; 6% in [7]; 6% in assay [8]. For the same compound, the results for the Activity in [9], in [10] and in [11] were 17%, 78% and 99.3%, respectively.
As to `CC(C)c1nc2c(Oc3ccc(NC(=O)c4cccn(-c5ccc(F)cc5)c4=O)cc3F)ccnc2[nH]1`, the IC50 in assay [1] turned out to be 4700 nM. For the same compound, the inhibition entry in assay [2] is “inactive”. In addition, the Activity in [3] came out at 3%; in [4], 0%; in assay [5], 43%; in assay [6], 7%; in [7], 1%; in assay [8] it was 0%. Also, the results for the Activity in assay [9], in assay [10] and in assay [11] were 1%, 61% and 99.6%, respectively.

Source of the values: ChEMBL document CHEMBL4261615, “Design, synthesis, biological evaluation and cellular imaging of imidazo[4,5-b]pyridine derivatives as potent and selective TAM inhibitors” (Bioorg Med Chem, 2018).
